For this data set, the system named is CCRIS mutagenicity, Ames/micronucleus/aberration tests. As to the kind of experiment: CCRIS mutagenicity studies. The note with it: Method: PREINCUBATION
Setting [1] is: Test System: AMES SALMONELLA TYPHIMURIUM, Strain/Indicator: TA97, Metabolic Activation: NONE.
Setting [2] is: Test System: AMES SALMONELLA TYPHIMURIUM, Strain/Indicator: TA98, Metabolic Activation: NONE.
Setting [3] is: Test System: AMES SALMONELLA TYPHIMURIUM, Strain/Indicator: TA100, Metabolic Activation: NONE.
The mark [4] stands for this setting: Test System: AMES SALMONELLA TYPHIMURIUM, Strain/Indicator: TA1535, Metabolic Activation: NONE.

Active and inactive are the calls of the source. The rule behind the calls is not given here.

`Cc1ccc(N)cc1C`: the mutagenic call was “inactive; negative” (Test System: AMES SALMONELLA TYPHIMURIUM, Strain/Indicator: TA97, Metabolic Activation: HAMSTER, LIVER, S-9, AROCLOR 1254 (10%)); “inactive; negative” under setting [1]; “inactive; negative” (Test System: AMES SALMONELLA TYPHIMURIUM, Strain/Indicator: TA97, Metabolic Activation: RAT, LIVER, S-9, AROCLOR 1254 (10%)); “inactive; negative” (Test System: AMES SALMONELLA TYPHIMURIUM, Strain/Indicator: TA98, Metabolic Activation: HAMSTER, LIVER, S-9, AROCLOR 1254 (10%)); “inactive; negative” under setting [2]; “inactive; negative” (Test System: AMES SALMONELLA TYPHIMURIUM, Strain/Indicator: TA98, Metabolic Activation: RAT LIVER S-9, PHENOBARBITAL AND BETA-NAPHTHOFLAVONE). For the same compound, the mutagenic call reads like this: (Test System: AMES SALMONELLA TYPHIMURIUM, Strain/Indicator: TA98, Metabolic Activation: RAT, LIVER, S-9, AROCLOR 1254 (10%)) “inactive; negative”; (Test System: AMES SALMONELLA TYPHIMURIUM, Strain/Indicator: TA100, Metabolic Activation: HAMSTER, LIVER, S-9, AROCLOR 1254 (10%)) “active; positive”; under setting [3], “inactive; negative”; (Test System: AMES SALMONELLA TYPHIMURIUM, Strain/Indicator: TA100, Metabolic Activation: RAT LIVER S-9, PHENOBARBITAL AND BETA-NAPHTHOFLAVONE) “inactive; negative”; (Test System: AMES SALMONELLA TYPHIMURIUM, Strain/Indicator: TA100, Metabolic Activation: RAT, LIVER, S-9, AROCLOR 1254 (10%)) “inactive; negative”; (Test System: AMES SALMONELLA TYPHIMURIUM, Strain/Indicator: TA1535, Metabolic Activation: HAMSTER, LIVER, S-9, AROCLOR 1254 (10%)) “inactive; negative”. Moreover, the mutagenic call reads like this: under setting [4], “inactive; negative”; (Test System: AMES SALMONELLA TYPHIMURIUM, Strain/Indicator: TA1535, Metabolic Activation: RAT LIVER S-9, PHENOBARBITAL AND BETA-NAPHTHOFLAVONE) “inactive; negative”; (Test System: AMES SALMONELLA TYPHIMURIUM, Strain/Indicator: TA1535, Metabolic Activation: RAT, LIVER, S-9, AROCLOR 1254 (10%)) “inactive; negative”; (Test System: AMES SALMONELLA TYPHIMURIUM, Strain/Indicator: TA1537, Metabolic Activation: HAMSTER, LIVER, S-9, AROCLOR 1254 (10%)) “inactive; negative”; (Test System: AMES SALMONELLA TYPHIMURIUM, Strain/Indicator: TA1537, Metabolic Activation: NONE) “inactive; negative”; (Test System: AMES SALMONELLA TYPHIMURIUM, Strain/Indicator: TA1537, Metabolic Activation: RAT LIVER S-9, PHENOBARBITAL AND BETA-NAPHTHOFLAVONE) “inactive; negative”. Besides, the mutagenic call is, setting by setting: (Test System: AMES SALMONELLA TYPHIMURIUM, Strain/Indicator: TA1538, Metabolic Activation: NONE) “inactive; negative”; (Test System: AMES SALMONELLA TYPHIMURIUM, Strain/Indicator: TA1538, Metabolic Activation: RAT LIVER S-9, PHENOBARBITAL AND BETA-NAPHTHOFLAVONE) “inactive; negative”; (Test System: E.COLI, Strain/Indicator: WP2UVRA, Metabolic Activation: NONE) “inactive; negative”; (Test System: E.COLI, Strain/Indicator: WP2UVRA, Metabolic Activation: RAT LIVER S-9, PHENOBARBITAL AND BETA-NAPHTHOFLAVONE) “inactive; negative”.
`CCNc1ccccc1`: the mutagenic call by setting is: (Test System: AMES SALMONELLA TYPHIMURIUM, Strain/Indicator: TA97, Metabolic Activation: HAMSTER, LIVER, S-9, AROCLOR 1254 (10 OR 30%)) “inactive; negative”; under setting [1], “inactive; negative”; (Test System: AMES SALMONELLA TYPHIMURIUM, Strain/Indicator: TA97, Metabolic Activation: RAT, LIVER, S-9, AROCLOR 1254 (10 OR 30%)) “inactive; negative”; (Test System: AMES SALMONELLA TYPHIMURIUM, Strain/Indicator: TA98, Metabolic Activation: HAMSTER, LIVER, S-9, AROCLOR 1254 (10 OR 30%)) “inactive; negative”; under setting [2], “inactive; negative”; (Test System: AMES SALMONELLA TYPHIMURIUM, Strain/Indicator: TA98, Metabolic Activation: RAT, LIVER, S-9, AROCLOR 1254 (10 OR 30%)) “inactive; negative”. The mutagenic call is, setting by setting: (Test System: AMES SALMONELLA TYPHIMURIUM, Strain/Indicator: TA100, Metabolic Activation: HAMSTER, LIVER, S-9, AROCLOR 1254 (10 OR 30%)) “inactive; negative”; under setting [3], “inactive; negative”; (Test System: AMES SALMONELLA TYPHIMURIUM, Strain/Indicator: TA100, Metabolic Activation: RAT, LIVER, S-9, AROCLOR 1254 (10 OR 30%)) “inactive; negative”; (Test System: AMES SALMONELLA TYPHIMURIUM, Strain/Indicator: TA1535, Metabolic Activation: HAMSTER, LIVER, S-9, AROCLOR 1254 (10 OR 30%)) “inactive; negative”; under setting [4], “inactive; negative”; (Test System: AMES SALMONELLA TYPHIMURIUM, Strain/Indicator: TA1535, Metabolic Activation: RAT, LIVER, S-9, AROCLOR 1254 (10 OR 30%)) “inactive; negative”.
In the case of `NNc1ccc(C(=O)O)cc1`, the mutagenic call reads like this: (Test System: AMES SALMONELLA TYPHIMURIUM, Strain/Indicator: TA104, Metabolic Activation: MUSHROOM TYROSINASE) “inactive; negative”; (Test System: AMES SALMONELLA TYPHIMURIUM, Strain/Indicator: TA104, Metabolic Activation: NONE) “inactive; negative”; (Test System: AMES SALMONELLA TYPHIMURIUM, Strain/Indicator: TA104, Metabolic Activation: RAT, LIVER, CYTOSOL, AROCLOR 1254, NADPH) “inactive; negative”.

The values above are taken from PubChem BioAssay AID1259407 (Chemical Carcinogenesis Research Information System (CCRIS), 2018).
